According to patent publication US11766397B2, “Bioactive compositions comprising ficus serum fracton and methods to reduce the appearance of skin hyperpigmentation” (ISP INVESTMENTS LLC, priority 2010, dated 2023):

Test system: facial hyperpigmented spots in humans
Assay: In vivo testing for hyperpigmented spot reduction and melanin evenness (split face, vehicle controlled)
Set-up: species or system human
Conditions: for Melanin Evenness vs Vehicle / NC2SAF (spot area fraction) vs Vehicle: twice daily facial application
Method: A 9 week in-vivo study was conducted using a round robin, vehicle controlled, split face design including a 1 week normalization period with 270 subjects. The 270 subjects were screened according to inclusion/exclusion criteria which included the following:
• Has hyperpigmented spots around cheek and/or periorbital area on both sides of the face. • Has at least 1 hyperpigmented spot of 8-10 mm diameter, 4 spots of 4-6 mm or 10 spots of 2-3 mm diameter (sun spots., freckles, or melasma spots) or • equivalent spot area in the cheek area on each side of their face. • Is willing to refrain from sun exposure by using supplied UV lotion and physical UV blocks, such as a hat, to avoid facial sunburn, tanning or wind burn.
• Has been diagnosed as having atopy, eczema, psoriasis, or other chronic skin diseases. • Has obvious signs of facial skin disease (e.g., more than 5 pimples, areas of red scaling skin, superficial thin blood vessels, etc.). • Has significant areas of discoloration or scarring on the face. • Has more than 3 prominent moles (<3 mm) on the face.
Two hundred and seventy subjects were recruited for the study. Approximately 60 subjects dropped during the course of the study. Each subject received two coded test formulations for twice daily application to each half of the face. Images of the facial treatment sites were captured at baseline (week 0), and after 4 and 8 weeks of treatment and analyzed for changes to skin color and spot size and color. The product formulations included a vehicle control, the Vehicle+0.55% FSF, and the vehicle+5% vitamin B3 compound (Niacinamide).
Noncontact spectrophotometric intracutaneous analysis (SiaScopy, Astron Clinica, UK) was used to collect and analyze the subject images. The method used a digital camera (e.g., Fuji S2 digital SLR) as a […] and a flash lighting source (e.g., Sigma Super flash light source) to recover facial chromophore information. A cross polarized filter was placed in front of the camera and the lighting source to eliminate specular reflection.
Chromophore mapping of the concentration and distribution of eumelanin (melanin) and oxyhaemoglobin produces grayscale concentration maps of each of these chromophores. Image analysis software, such as Optimas 6.5, can be used to select a region of interest in each chromophore map from which mean grayscale values and spot area fraction are calculated. Spot area fraction refers to total area occupied by melanin spots as a percentage of the whole region of interest. A description of one type of chromophore mapping can be found in EP 1,810,614 and “The Distribution of Melanin in Skin Determined In Vivo”, British Journal of Dermatology, 2007, pp 620-628.

NC(=O)c1cccnc1 [Niacinamide]
Melanin Evenness vs Vehicle (4 weeks): ns (ns = not significant (p > 0.3)) | NC2SAF (spot area fraction) vs Vehicle (4 weeks): as | Melanin Evenness vs Vehicle (8 weeks): sig (sig = significant (p < 0.1)) | NC2SAF (spot area fraction) vs Vehicle (8 weeks): sig (sig = significant (p < 0.1)) | reducing hyperpigmented spots (After 8 weeks): best performer
